# Data published in patent US20220033397A1, “PHARMACEUTICAL COMPOUNDS AND THEIR USE AS INHIBITORS OF UBIQUITIN SPECIFIC PROTEASE 19 (USP19)” (ALMAC DISCOVERY LIMITED, priority 2018, published 2022).
# Molecular target: T1, Full-length USP19 (Homo sapiens, UniProt O94966)
# T1 construct: Full-length USP19 was purchased from Boston Biochem (E-576); purchased Boston Biochem E-576
# T1 sequence (O94966 1-1318): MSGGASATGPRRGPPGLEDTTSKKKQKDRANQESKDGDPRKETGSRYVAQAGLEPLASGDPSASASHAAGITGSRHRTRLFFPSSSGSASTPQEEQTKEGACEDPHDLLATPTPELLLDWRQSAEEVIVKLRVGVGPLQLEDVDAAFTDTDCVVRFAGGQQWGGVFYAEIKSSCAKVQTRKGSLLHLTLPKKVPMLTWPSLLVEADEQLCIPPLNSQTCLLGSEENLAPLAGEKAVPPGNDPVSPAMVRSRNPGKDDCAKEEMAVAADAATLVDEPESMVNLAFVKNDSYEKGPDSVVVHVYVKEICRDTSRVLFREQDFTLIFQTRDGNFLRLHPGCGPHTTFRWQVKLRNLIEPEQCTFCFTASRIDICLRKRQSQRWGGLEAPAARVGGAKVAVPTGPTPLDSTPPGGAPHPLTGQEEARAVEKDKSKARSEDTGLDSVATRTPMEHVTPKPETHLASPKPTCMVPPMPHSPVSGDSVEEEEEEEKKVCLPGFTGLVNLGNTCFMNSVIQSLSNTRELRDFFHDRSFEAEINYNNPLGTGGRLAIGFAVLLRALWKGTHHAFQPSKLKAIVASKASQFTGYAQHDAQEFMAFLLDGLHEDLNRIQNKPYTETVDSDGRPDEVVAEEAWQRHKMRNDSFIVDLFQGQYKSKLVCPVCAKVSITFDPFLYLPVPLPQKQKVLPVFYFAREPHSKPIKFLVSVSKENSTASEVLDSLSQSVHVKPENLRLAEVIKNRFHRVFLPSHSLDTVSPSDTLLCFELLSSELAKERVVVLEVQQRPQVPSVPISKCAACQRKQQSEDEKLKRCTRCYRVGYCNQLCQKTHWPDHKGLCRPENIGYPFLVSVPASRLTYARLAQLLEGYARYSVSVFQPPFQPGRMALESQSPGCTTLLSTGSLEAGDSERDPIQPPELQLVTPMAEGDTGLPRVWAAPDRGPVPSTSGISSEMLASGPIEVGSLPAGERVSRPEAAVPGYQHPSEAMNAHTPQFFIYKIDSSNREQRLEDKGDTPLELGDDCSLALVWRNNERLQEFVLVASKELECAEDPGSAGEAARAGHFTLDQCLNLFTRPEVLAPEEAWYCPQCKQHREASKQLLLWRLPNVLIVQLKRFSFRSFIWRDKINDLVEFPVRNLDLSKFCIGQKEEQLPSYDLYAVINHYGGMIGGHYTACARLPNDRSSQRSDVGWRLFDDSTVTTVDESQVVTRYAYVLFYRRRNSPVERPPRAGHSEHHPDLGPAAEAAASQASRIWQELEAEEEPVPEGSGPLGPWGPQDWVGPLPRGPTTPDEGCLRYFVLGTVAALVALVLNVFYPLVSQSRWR
# Test: USP19 fluorescence polarisation (FP) homogeneous assay with Ubiquitin-Lys-TAMRA substrate
# Format: biochemical
# Conditions: 2.5 nM USP19, 30 min pre-incubation, average of at least two duplicate experiments
# Summary of the method: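 Full-length USP19 preincubated 30 min at RT with inhibitor (200 μM to 2 μM series, 8–18 points) before adding 500 nM Ubiquitin-Lys-TAMRA substrate.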
row,IC50,SMILES
1,< 500 nM,"O=C(N1CC[C@@](O)(Cn2cnc(-c3ccc4c(c3)OCC4)cc2=O)C2(CCCC2)C1)N1CCNC[C@H]1c1ccccc1 [Example 353, 6-(2,3-Dihydrobenzofuran-6-yl)-3-(((S)-10-hy-droxy-7-((R)-2-phenylpiperazine-1-carbonyl)-7-aza-spiro[4.5]decan-10-yl)methyl)pyrimidin-4(3H)-one]"
2,< 500 nM,"O=C(N1CC[C@@](O)(Cn2cnc(-c3ccccc3OC(F)(F)F)cc2=O)C2(CCCC2)C1)N1CCNC[C@H]1c1ccccc1 [Example 354, 3-(((S)-10-Hydroxy-7-((R)-2-phenylpiperazine-1-carbonyl)-7-azaspiro[4.5]decan-10-yl)methyl)-6-(2-(trifluorometh-oxy)phenyl) pyrimidin-4(3H)-one]"
3,< 500 nM,"O=C(N1CC[C@@](O)(Cn2cnc(-c3ccccc3F)cc2=O)C2(CCCC2)C1)N1CCNC[C@H]1c1cccc(F)c1 [Example 355, 6-(2-Fluorophenyl)-3-(((S)-7-((R)-2-(3-fluorophenyl)pipera-zine-1-carbonyl)-10-hydroxy-7-aza-spiro[4.5]decan-10-yl)methyl)pyrimidin-4(3H)-one]"
4,< 500 nM,"COc1ccccc1-c1cc(=O)n(C[C@]2(O)CCN(C(=O)N3CCNC[C@H]3c3cccc(F)c3)CC23CCCC3)cn1 [Example 356, 3-(((S)-7-((R)-2-(3-Fluorophenyl)pipera-zine-1-carbonyl)-10-hydroxy-7-azaspiro[4.5]decan-10-yl)methyl)-6-(2-methoxyphenyl)pyri-midin-4(3H)-one]"
5,< 500 nM,"O=C(N1CC[C@@](O)(Cn2cnc(N3CC(F)(F)C3)cc2=O)C2(CCCC2)C1)N1CCNC[C@H]1c1ccccc1 [Example 357, 6-(3,3-Difluoro-azetidin-1-yl)-3-(((S)-10-hydroxy-7-((R)-2-phenylpiperazine-1-carbonyl)-7-aza-spiro[4.5]decan-10-yl)methyl)pyrimidin-4(3H)-one]"
6,< 500 nM,"O=C(N1CC[C@@](O)(Cn2cnc(-c3ccccc3)cc2=O)C2(CCCC2)C1)N1CCNCC1c1cccs1 (stereo partly drawn) [Example 358, 3-(((10S)-10-Hy-droxy-7-(2-(thio-phen-2-yl)piperazine-1-carbonyl)-7-aza-spiro[4.5]decan-10-yl)methyl)-6-phenylpyrimidin-4(3H)-one]"
7,< 500 nM,"O=C(N1CC[C@@](O)(Cn2cnc(N3CCC(F)(F)C3)cc2=O)C2(CCCC2)C1)N1CCNC[C@H]1c1ccccc1 [Example 359, 6-(3,3-Difluoro-pyrrolidin-1-yl)-3-(((S)-10-hydroxy-7-((R)-2-phenylpiperazine-1-carbonyl)-7-aza-spiro[4.5]decan-10-yl)methyl)pyrimidin-4(3H)-one]"
8,< 500 nM,"O=C(N1CC[C@@](O)(Cn2cnc(-c3ccccc3C(F)(F)F)cc2=O)C2(CCCC2)C1)N1CCNC[C@H]1c1ccccc1 [Example 360, 3-(((S)-10-Hydroxy-7-((R)-2-phenylpiperazine-1-carbonyl)-7-azaspiro[4.5]decan-10-yl)methyl)-6-(2-(trifluoromethyl)phe-nyl)pyrimidin-4(3H)-one]"
9,< 500 nM,"O=C(N1CC[C@@](O)(Cn2cnc(N3CCC(F)CC3)cc2=O)C2(CCCC2)C1)N1CCNC[C@H]1c1ccccc1 [Example 361, 6-(4-Fluoropiperidin-1-yl)-3-(((S)-10-hydroxy-7-((R)-2-phenylpiperazine-1-carbonyl)-7-aza-spiro[4.5]decan-10-yl)methyl)pyrimidin-4(3H)-one]"
10,< 500 nM,"Cn1nc(C(F)(F)F)cc1-c1ccn(C[C@]2(O)CCN(C(=O)N3CCNC[C@H]3c3ccccc3)CC23CCCC3)c(=O)c1 [Example 362, 1-(((S)-10-Hydroxy-7-((R)-2-phenylpiperazine-1-carbonyl)-7-azaspiro [4.5]decan-10-yl)methyl)-4-(1-methyl-3-(trifluoromethyl)-1H-pyrazol-5-yl)pyri-din-2(1H)-one]"
11,< 500 nM,"O=C(N1CC[C@@](O)(Cn2cnc(N3CCCC(F)(F)C3)cc2=O)C2(CCCC2)C1)N1CCNC[C@H]1c1ccccc1 [Example 363, 6-(3,3-Difluoro-piperidin-1-yl)-3-(((S)-10-hydroxy-7-((R)-2-phenylpiperazine-1-carbonyl)-7-azaspiro[4.5]decan-10-yl)methyl)pyrimi-din-4(3H)-one]"
12,< 500 nM,"O=C(N1CC[C@@](O)(Cn2cnc(-c3ccccc3OC(F)F)cc2=O)C2(CCCC2)C1)N1CCNC[C@H]1c1ccccc1 [Example 364, 6-(2-(Difluoro-methoxy)phenyl)-3-(((S)-10-hydroxy-7-((R)-2-phenylpiperazine-1-carbonyl)-7-aza-spiro[4.5]decan-10-yl)methyl)pyrimidin-4(3H)-one]"
13,< 500 nM,"O=C(N1CC[C@@](O)(Cn2cnc(-c3ccccc3OC3CC3)cc2=O)C2(CCCC2)C1)N1CCNC[C@H]1c1ccccc1 [Example 365, 6-(2-Cyclo-propoxyphenyl)-3-(((S)-10-hydroxy-7-((R)-2-phenylpipera-zine-1-carbonyl)-7-azaspiro[4.5]decan-10-yl)methyl)pyrimi-din-4(3H)-one]"
14,< 500 nM,"O=C(N1CC[C@@](O)(Cn2cnc(-c3ccccc3C(F)F)cc2=O)C2(CCCC2)C1)N1CCNC[C@H]1c1ccccc1 [Example 366, 6-(2-(Difluoro-methyl)phenyl)-3-(((S)-10-hydroxy-7-((R)-2-phenylpiperazine-1-carbonyl)-7-aza-spiro[4.5]decan-10-yl)methyl)pyrimidin-4(3H)-one]"
15,< 500 nM,"O=C(N1CC[C@@](O)(Cn2cnc(-c3ccccc3)cc2=O)C2(CCCC2)C1)N1CCNC[C@H]1c1cccc(F)c1F [Example 367, 3-(((S)-7-((R)-2-(2,3-Difluoro-phenyl)piper-azine-1-carbonyl)-10-hydroxy-7-azaspiro[4.5]decan-10-yl)methyl)-6-phenylpyrimidin-4(3H)-one]"
16,< 500 nM,"O=C(N1CC[C@@](O)(Cn2cnc(-c3ccccc3)cc2=O)C2(CCCC2)C1)N1CCNC[C@H]1c1ccc(F)cc1F [Example 368, 3-(((S)-7-((R)-2-(2,4-Difluoro-phenyl)piper-azine-1-carbonyl)-10-hydroxy-7-azaspiro[4.5]decan-10-yl)methyl)-6-phenylpyrimidin-4(3H)-one]"
17,< 500 nM,"O=C(N1CC[C@@](O)(Cn2cnc(-c3ccccc3)cc2=O)C2(CCCC2)C1)N1CCNC[C@H]1c1ccc(F)cc1 [Example 369, 3-(((S)-7-((R)-2-(4-Fluorophenyl)pipera-zine-1-carbonyl)-10-hydroxy-7-azaspiro[4.5]decan-10-yl)methyl)-6-phenylpyrimidin-4(3H)-one]"
18,< 500 nM,"O=C(N1CC[C@@](O)(Cn2cnc(-c3ccccc3)cc2=O)C2(CCCC2)C1)N1CCNC[C@H]1c1ccccc1F [Example 370, 3-(((10S)-7-(2-(2-Fluorophenyl)pipera-zine-1-carbonyl)-10-hydroxy-7-azaspiro[4.5]decan-10-yl)methyl)-6-phenylpyrimidin-4(3H)-one]"
19,< 500 nM,"Cn1ccc(-c2cc(=O)n(C[C@]3(O)CCN(C(=O)N4CCNC[C@H]4c4ccccc4)CC34CCCC4)cn2)n1 [Example 371, 3-(((S)-10-Hydroxy-7-((R)-2-phenylpiperazine-1-carbonyl)-7-aza-spiro[4.5]decan-10-yl)methyl)-6-(1-methyl-1H-pyrazol-3-yl)pyrimidin-4(3H)-one]"
20,< 500 nM,"O=C1CN(C(=O)N2CC[C@@](O)(Cn3cnc(-c4ccccc4)cc3=O)C3(CCCC3)C2)[C@H](c2ccccc2)CN1 [Example 372, 3-(((S)-10-Hydroxy-7-((R)-5-oxo-2-phenylpiperazine-1-carbonyl)-7-azaspiro[4.5]decan-10-yl)methyl)-6-phenylpyrimidin-4(3H)-one]"
21,< 500 nM,"O=C(N1CC[C@@](O)(Cn2cnc(-c3ccccc3)cc2=O)C2(CCCC2)C1)N1CCNC[C@H]1c1cc(F)ccc1F [Example 373, 3-(((S)-7-((R)-2-(2,5-Difluorophenyl)piper-azine-1-carbonyl)-10-hydroxy-7-azaspiro[4.5]decan-10-yl)methyl)-6-phenylpyrimidin-4(3H)-one]"
